Test results: US20230226136A1, “A SYNERGISTIC FORMULATION FOR MANAGEMENT OF RESPIRATORY PATHOGENS INCLUDING CORONAVIRUSES” (priority 2020, published 2023)

How the values were obtained:
[1] = Effective concentrations of components of the formulation (tested in 200 uL of the formulation); details: for Actual concentrations that were effective in 200 uL, 1:20 dilution: concentration of the component within the formulation at 1:20 dilution
Method: Table 1 depicts the concentration of the biological, non-toxic peptide molecules included in the formulation of the present invention. The synergistic formulation of the present invention is prepared in various combinations of the constituents including protease inhibitor, 9 Arg, ion chelator, FDHIVY, Poly-Lys (L8), Anti-HAT, and vitamin B12. Each combination may include some of the above mentioned constituents depending on the use of the formulation. These concentrations of the components of the synergistic formulations of the present invention have been tested to be effective in 200 μL of the formulation.

[2] = test system: SARS-CoV-2; experiment: IC-50 plaque assay against SARS-CoV-2; type: cell-based; details: highest concentration tested 25 μM, FIG. 3
Method: The IC-50 value of Remdesivir was calculated by considering the top and baseline value 100 and 0 respectively.
The IC-50 of the test material was calculated by considering the top and baseline value 100 and 0 respectively.

Molecule	Actual concentrations that were effective in 200 uL, 1:20 dilution [1]	Actual concentrations that were effective in 200 uL, 1:30 dilution ([1]; concentration of the component within the formulation at 1:30 dilution)	reduction in viral load [2]
9-L-Arginine-peptide [9 Arg]	2 mM	1.3 mM	–
CCC(CC)COC(=O)[C@H](C)N[P@](=O)(OC[C@H]1O[C@@](C#N)(c2ccc3c(N)ncnn23)[C@H](O)[C@@H]1O)Oc1ccccc1 [Remdesivir]	–	–	up to 86.84%
Phenylalanine-Aspartic acid-Histidine-Isoleucine-Valine-Tyrosine [FDHIVY]	0.25 µg/mL	–	–
